# Reference: patent US20130018061A1, “Method for Improving Exercise and Recovery From Exercise” (priority 2011, published 2013)
# Legend:
# [1] = 250 mg caffeine, 200 mg L-theanine, or both; cited from earlier work
# [2] = Study 2; effects typically experienced with high amounts of caffeine
# Experimental: In this first study, twenty-one subjects (20 male, 1 female), all healthy and between the ages of 20 and 35 years were given the pre-workout supplement in capsule form to be taken 30 to 45 minutes before exercise on an empty stomach in place of any regularly consumed pre-workout product prior to the next exercise session. Subjects were instructed to maintain normal diet and activity. Subjects were surveyed for ratings of perceived effects on energy levels and mental focus. Subjects were also advised to supply general comments regarding the supplement in terms of negative side effects, comparison to other products, overall satisfaction and effectiveness.
# [3] = absorbed in the small intestine; cited from earlier work
# [4] = 50 mg or 200 mg after cycling exercise, fourteen healthy male subjects; cited from earlier work
SMILES,"effect on alertness, anxiety and blood pressure [1]",jitters and energy crash [2],time of peak plasma levels [3] [min],post-exercise mental regeneration [4]
"Cn1c(=O)c2c(ncn2C)n(C)c1=O [caffeine, 1,3,7-trimethylxanthine]","increased alertness, anxiety, and blood pressure",–,–,–
"CCNC(=O)CC[C@H](N)C(=O)O [L-theanine, γ-N-ethylglutamine]",only acted to counter the increase in blood pressure,prevented jitters and the energy crash,≤ 30,accelerated post-exercise mental regeneration
